Reference: patent publication US6191126A, “Topical use of κ opioid agonists to treat ocular pain” (Alcon Laboratories, Inc., priority 1999, dated 2001)

Key:
[1] = test system: formalin-induced ocular pain (blinking); assay: formalin-induced model of ocular pain in the rat (inhibition of blinking after topical ocular dosing); details: in vivo
[2] = test system: mu opioid receptor (vs delta and kappa receptors); details: Goodman and Gilman, 8th Edition; cited from earlier work

## COC(=O)N1CCN(C(=O)Cc2ccc(Cl)c(Cl)c2)C(CN2CCCC2)C1 (racemic) [GR 89696]
[1]
  % Inhibition (of blink count in first minute vs vehicle): 98

## CN1CC[C@]23c4c5ccc(O)c4O[C@H]2[C@@H](O)C=C[C@H]3[C@H]1C5 [Morphine]
[1]
  % Inhibition (of blink count in first minute vs vehicle): 8
[2]
  times greater affinity for the mu receptor than for the delta and kappa receptors: ten
